Data as given in patent publication US12667572B2, “Tricyclic compounds useful in the treatment of cancer, autoimmune and inflammatory disorders” (SCHRÖDINGER, INC., priority 2021, dated 2026).

Target: T1, full-length MALT1 protein His-MALT1(1-824) (Homo sapiens, UniProt Q9UDY8)
T1 construct: full-length MALT1 protein His-MALT1(1-824); His (N); made in house; host or cells: baculovirus-infected insect cells
T1 sequence (Q9UDY8 1-824): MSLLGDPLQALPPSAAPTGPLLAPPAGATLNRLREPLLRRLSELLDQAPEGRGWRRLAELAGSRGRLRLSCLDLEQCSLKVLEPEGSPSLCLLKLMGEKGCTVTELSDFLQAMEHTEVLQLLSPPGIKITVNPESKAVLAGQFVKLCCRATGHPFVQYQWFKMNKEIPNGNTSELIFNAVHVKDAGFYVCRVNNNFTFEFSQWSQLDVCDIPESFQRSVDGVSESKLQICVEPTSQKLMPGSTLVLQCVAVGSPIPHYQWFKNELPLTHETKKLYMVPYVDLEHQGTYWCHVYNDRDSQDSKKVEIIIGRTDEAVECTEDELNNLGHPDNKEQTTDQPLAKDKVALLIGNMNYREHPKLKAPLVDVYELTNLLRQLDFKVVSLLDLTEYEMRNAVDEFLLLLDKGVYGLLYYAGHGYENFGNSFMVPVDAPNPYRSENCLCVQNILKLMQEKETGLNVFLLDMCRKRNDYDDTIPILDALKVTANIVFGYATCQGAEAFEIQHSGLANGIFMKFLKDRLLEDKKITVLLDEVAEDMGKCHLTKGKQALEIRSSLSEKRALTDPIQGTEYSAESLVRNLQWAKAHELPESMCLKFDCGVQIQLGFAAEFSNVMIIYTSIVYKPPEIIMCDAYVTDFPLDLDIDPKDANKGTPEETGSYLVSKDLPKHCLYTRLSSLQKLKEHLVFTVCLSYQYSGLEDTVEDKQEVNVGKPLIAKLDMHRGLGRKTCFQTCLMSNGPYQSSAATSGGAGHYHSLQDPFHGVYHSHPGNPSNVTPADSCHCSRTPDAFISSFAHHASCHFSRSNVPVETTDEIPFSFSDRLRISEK
Assay: MALT1 protease assay, Assay 2 (1 nM MALT1, Ac-LRSR-AMC substrate)
Type: biochemical
Settings: 1 nM MALT1, 50 μM Ac-LRSR-AMC, 2 h pre-incubation, 8 hr incubation at RT
Outline: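 Compounds (0.1% DMSO final) sat 2 h at RT with insect-cell-expressed His-MALT1(1-824), in 50 mM Tris pH 7.5, 600 mM sodium citrate, 1 mM DTT, 1 mM EDTA, 0.05% BSA. Cleavage of 50 μM Ac-LRSR-AMC (Km ~100 μM) ran 8 h at RT, read as AMC fluorescence. IC50 and Hill coefficient fitted to % remaining activity.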

IC50 [nM]	Structure (SMILES)
≥ 1000	CC1(C)CC(C)(C(=O)Nc2cnc(-n3nccn3)c(Cl)c2)c2cnc3cc(Cl)nn3c21 (single isomer, unassigned) [Example 139, 2-chloro-N-(5-chloro-6-(2H-1,2,3-triazol-2-yl)pyridin-3-yl)-6,8,8-trimethyl-7,8-dihydro-6H-cyclopenta[e]pyrazolo[1,5-a]pyrimidine-6-carboxamide]
≥ 1000	CC1(C)C[C@@H](C(=O)Nc2cnc(C(=O)NC3CC3)c(C(F)F)c2)c2cnc3cc(Cl)nn3c21 (single isomer, unassigned) [Example 172]
10 to 100	CC1(C)CC(C(=O)Nc2cnc(-n3nccn3)c(C#N)c2)c2cnc3cc(F)nn3c21 (single isomer, unassigned) [Example 88, N-(5-cyano-6-(2H-1,2,3-triazol-2-yl)pyridin-3-yl)-2-fluoro-8,8-dimethyl-7,8-dihydro-6H-cyclopenta[e]pyrazolo[1,5-a]pyrimidine-6-carboxamide]
≥ 1000	Cn1nnc(-c2ncc(NC(=O)[C@@H]3CC(C)(C)c4c3cnc3cc(Cl)nn43)cc2Cl)n1 (single isomer, unassigned) [Example 142, 2-chloro-N-(5-chloro-6-(2-methyl-2H-tetrazol-5-yl)pyridin-3-yl)-8,8-dimethyl-7,8-dihydro-6H-cyclopenta[e]pyrazolo[1,5-a]pyrimidine-6-carboxamide]
100 to 1000	CC1(C)CC(C(=O)Nc2cc(C(F)F)c(-c3ccno3)c(=O)[nH]2)c2cnc3cc(Cl)nn3c21 (centres unmarked) [Example 60, 2-chloro-N-(4-(difluoromethyl)-5-(isoxazol-5-yl)-6-oxo-1,6-dihydropyridin-2-yl)-8,8-dimethyl-7,8-dihydro-6H-cyclopenta[e]pyrazolo[1,5-a]pyrimidine-6-carboxamide]
≥ 1000	CC1(C)C[C@@H](C(=O)Nc2cc(C#N)c(OC(F)F)cn2)c2cnc3cc(F)nn3c21 (single isomer, unassigned) [Example 169]
100 to 1000	CC1(C)CC(C(=O)Nc2cnc(OC(F)F)c(C#N)c2)c2cnc3cc(Cl)nn3c21 (single isomer, unassigned) [Example 78, 2-chloro-N-(5-cyano-6-(difluoromethoxy)pyridin-3-yl)-8,8-dimethyl-7,8-dihydro-6H-cyclopenta[e]pyrazolo[1,5-a]pyrimidine-6-carboxamide]
100 to 1000	C[C@@H](O)c1cnn(-c2ncc(NC(=O)[C@@H]3CC(C)(C)c4c3cnc3cc(Cl)nn43)cc2Cl)n1 (single isomer, unassigned) [Example 52, 2-chloro-N-(5-chloro-6-(4-(1-hydroxyethyl)-2H-1,2,3-triazol-2-yl)pyridin-3-yl)-8,8-dimethyl-7,8-dihydro-6H-cyclopenta[e]pyrazolo[1,5-a]pyrimidine-6-carboxamide]
10 to 100	Cc1cc(NC(=O)[C@H]2CC(C)(C)c3c2cnc2cc(F)nn32)cnc1-n1nccn1 (single isomer, unassigned) [Example 183]
≥ 1000	CN(C(=O)c1ncc(NC(=O)[C@@H]2CC(C)(C)c3c2cnc2cc(Cl)nn32)cc1C(F)F)C1CC1 (single isomer, unassigned) [Example 72, 2-chloro-N-(6-(cyclopropyl(methyl)carbamoyl)-5-(difluoromethyl)pyridin-3-yl)-8,8-dimethyl-7,8-dihydro-6H-cyclopenta[e]pyrazolo[1,5-a]pyrimidine-6-carboxamide]
100 to 1000	O=C(Nc1cnc(-n2nccn2)c(C(F)(F)F)c1)[C@H]1C[C@@]2(CCO2)c2c1cnc1cc(Cl)nn21 (racemic) [Example 116, (trans)-N-(6-(2H-1,2,3-triazol-2-yl)-5˜(trifluoromethyl)pyridin-3-yl)-2-chloro-6,7-dihydrospiro[cyclopenta[e]pyrazolo[1,5-a]pyrimidine-8,2′-oxetane]-6-carboxamide]
10 to 100	CC1(C)CC(C(=O)Nc2cc(C(F)F)c(-n3cccn3)c(=O)[nH]2)c2cnc3cc(Cl)nn3c21 (centres unmarked) [Example 62, 2-chloro-N-(4-(difluoromethyl)-6-oxo-5-(1H-pyrazol-1-yl)-1,6-dihydropyridin-2-yl)-8,8-dimethyl-7,8-dihydro-6H-cyclopenta[e]pyrazolo[1,5-a]pyrimidine-6-carboxamide]
100 to 1000	CC1(C)CC(C(=O)Nc2cnc(C(=O)N3CC(F)(F)C3)c(C(F)(F)F)c2)c2cnc3cc(Cl)nn3c21 (centres unmarked) [Example 164, 2-chloro-N-(6-(3,3-difluoroazetidine-1-carbonyl)-5˜(trifluoromethyl)pyridin-3-yl)-8,8-dimethyl-7,8-dihydro-6H-cyclopenta[e]pyrazolo[1,5-a]pyrimidine-6-carboxamide]
≥ 1000	CC1(C)C[C@@H](C(=O)Nc2cnc(-n3nccn3)c(C(F)F)c2)c2cnc3cc(Cl)nn3c21 (single isomer, unassigned) [Example 46, 2-chloro-N-(5-(difluoromethyl)-6-(2H-1,2,3-triazol-2-yl)pyridin-3-yl)-8,8-dimethyl-7,8-dihydro-6H-cyclopenta[e]pyrazolo[1,5-a]pyrimidine-6-carboxamide]
10 to 100	CC1(C)CC(C(=O)Nc2cc(C(F)F)c(-c3c[nH]cn3)c(=O)[nH]2)c2cnc3cc(Cl)nn3c21 (centres unmarked) [Example 48, 2-chloro-N-(4-(difluoromethyl)-5˜(1H-imidazol-4-yl)-6-oxo-1,6-dihydropyridin-2-yl)-8,8-dimethyl-7,8-dihydro-6H-cyclopenta[e]pyrazolo[1,5-a]pyrimidine-6-carboxamide]
100 to 1000	CC1(C)CC(C(=O)Nc2cnc(N3CCC3=O)c(Cl)c2)c2cnc3cc(F)nn3c21 (centres unmarked) [Example 176, N-(5-chloro-6-(2-oxoazetidin-1-yl)pyridin-3-yl)-2-fluoro-8,8-dimethyl-7,8-dihydro-6H-cyclopenta[e]pyrazolo[1,5-a]pyrimidine-6-carboxamide]
10 to 100	CC1(C)CC(C(=O)Nc2cnc(-c3nnn(C4COC4)n3)c(Cl)c2)c2cnc3cc(Cl)nn3c21 (centres unmarked) [Example 162, 2-chloro-N-(5-chloro-6-(2-(oxetan-3-yl)-2H-tetrazol-5-yl)pyridin-3-yl)-8,8-dimethyl-7,8-dihydro-6H-cyclopenta[e]pyrazolo[1,5-a]pyrimidine-6-carboxamide]
10 to 100	CC1(C)CC(C(=O)Nc2cnc(OC(F)F)c(C#N)c2)c2cnn3cc(C(F)F)nc3c21 (single isomer, unassigned) [Example 199, N-(5-cyano-6-(difluoromethoxy)pyridin-3-yl)-2-(difluoromethyl)-9,9-dimethyl-8,9-dihydro-7H-cyclopenta[d]imidazo[1,2-b]pyridazine-7-carboxamide]
10 to 100	CC1(C)C[C@H](C(=O)Nc2cc(C(F)F)c(-c3ncco3)c(=O)[nH]2)c2cnc3cc(Cl)nn3c21 (single isomer, unassigned) [Example 58, 2-chloro-N-(4-(difluoromethyl)-5˜(oxazol-2-yl)-6-oxo-1,6-dihydropyridin-2-yl)-8,8-dimethyl-7,8-dihydro-6H-cyclopenta[e]pyrazolo[1,5-a]pyrimidine-6-carboxamide]
10 to 100	O=C(Nc1cnc(-n2nccn2)c(Cl)c1)[C@@H]1CC2(CC2)c2c1cnc1cc(F)nn21 (single isomer, unassigned) [Example 94, N-(5-chloro-6-(2H-1,2,3-triazol-2-yl)pyridin-3-yl)-2-fluoro-6,7-dihydrospiro[cyclopenta[e]pyrazolo[1,5-a]pyrimidine-8,1′-cyclopropane]-6-carboxamide]
≥ 1000	Cc1c(F)nn2c3c(cnc12)C(C(=O)Nc1cnc(-n2nccn2)c(Cl)c1)CC3(C)C (single isomer, unassigned) [Example 113, N-(5-chloro-6-(2H-1,2,3-triazol-2-yl)pyridin-3-yl)-2-fluoro-3,8,8-trimethyl-7,8-dihydro-6H-cyclopenta[e]pyrazolo[1,5-a]pyrimidine-6-carboxamide]
100 to 1000	CCO[C@@]1(C(F)(F)F)C[C@@H](C(=O)Nc2cnc(-n3nccn3)c(Cl)c2)c2cnc3cc(Cl)nn3c21 (single isomer, unassigned) [Example 167, (cis)-2-chloro-N-(5-chloro-6-(2H-1,2,3-triazol-2-yl)pyridin-3-yl)-8-ethoxy-8-(trifluoromethyl)-7,8-dihydro-6H-cyclopenta[e]pyrazolo[1,5-a]pyrimidine-6-carboxamide]
100 to 1000	CCO[C@@]1(C(F)(F)F)C[C@H](C(=O)Nc2cnc(-n3nccn3)c(Cl)c2)c2cnc3cc(Cl)nn3c21 (single isomer, unassigned) [Example 168, (trans)-2-chloro-N-(5-chloro-6-(2H-1,2,3-triazol-2-yl)pyridin-3-yl)-8-ethoxy-8-(trifluoromethyl)-7,8-dihydro-6H-cyclopenta[e]pyrazolo[1,5-a]pyrimidine-6-carboxamide]
